Counter-ions that a name gives are not always drawn.
Key:
Assay in all cases: Chou and Talalay combination assay with beta-caryophyllene
Conditions in all cases: anticancer drug in combination with beta-caryophyllene; Chou and Talalay CI; 48 h
[1] = system: GL-261 (murine glioblastoma); format: cell-based
Description: (§1) Each solution was prepared fresh and use within 1 hour after preparation.
(§2) Cells were then harvested using trypsine-EDTA. Cells were counted using a hemocytometer and resuspended in DMEM+10% FBS medium.
(§3) Proliferation assay: Increasing concentrations of the anticancer agents and/or beta-caryophyllene were added to 96-well plate (100 μL per well). The final concentration of solvent in the culture medium was maintained below 0.5% (volume/volume) to avoid solvent toxicity.
(§4) The cells were incubated for 48 h at 37° C. and 5% CO2. Cytotoxicity was assessed using the resazurin reduction test (O'Brien et al., 2000). Fluorescence was measured on an automated 96-well Fluoroskan Ascent FI™ plate reader (Labsystems) using excitation and emission wavelengths of 530 nm and 590 nm, respectively. Resazurin was then removed.
(§5) Microplates were frozen at −20° C. overnight. Plates were thawed, a volume of 100 μl of 0.01% SDS in water was added to the wells, the plates were shaken at room temperature for 3 hours and then frozen once more at −20° C. overnight. […] Plates were shaken in the dark (at room temperature) for at least 2 hours, and fluorescence was measured on an automated 96-well Fluoroskan Ascent FI™ plate reader (Labsystems) using excitation and emission wavelengths of 360 nm and 460 nm, respectively.
(§6) Results were analyzed using the Chou and Talalay method (9) and may be interpreted as follow: Cl>1 represents an antagonist effect of beta-caryophyllene with the corresponding anticancer agent; Cl=1 represents an additive effect of beta-caryophyllene with the corresponding anticancer agent; Cl<1 represents a potentiating effect of beta-caryophyllene with the corresponding anticancer agent.

[2] = system: U-251 (human glioblastoma); format: cell-based
Description: as §1, §2, §3, §4, §5, §6

B16 (murine melanoma) = format: cell-based
Description: as §1, §2, §3, §4, §5, §6

MEL-2 (human melanoma) = format: cell-based
Description: as §1, §2, §3, §4, §5, §6

[3] = system: MDA-MB-231 (breast cancer); format: cell-based, human
Description: as §1, §2, §3, §4, §5, §6

DLD-1 (colon cancer) = format: cell-based, human
Description: as §1, §2, §3, §4, §5, §6

PA-1 (ovary cancer) = format: cell-based, human
Description: as §1, §2, §3, §4, §5, §6

MCF-7 (breast cancer) = format: cell-based, human
Description: as §1, §2, §3, §4, §5, §6

A-549 (lung cancer) = format: cell-based, human
Description: as §1, §2, §3, §4, §5, §6

PC-3 (prostate cancer) = format: cell-based, human
Description: as §1, §2, §3, §4, §5

Structure (SMILES): COc1cc([C@@H]2c3cc4c(cc3[C@@H](O[C@@H]3O[C@@H]5CO[C@@H](C)O[C@H]5[C@H](O)[C@H]3O)[C@H]3COC(=O)[C@H]23)OCO4)cc(OC)c1O [Etoposide, etoposide]
- Potentiating activity GL-261 [1]: (2) (High: CI < 0.5 to IC50)
- Potentiating activity U-251 [2]: (3) (Moderate: 0.5 < CI < 0.8 to IC50)
- Potentiating activity B16 (B16 (murine melanoma)): (3) (Moderate: 0.5 < CI < 0.8 to IC50)
- Potentiating activity MEL-2 (MEL-2 (human melanoma)): (3) (Moderate: 0.5 < CI < 0.8 to IC50)
- Potentiating activity MDA [3]: (1) (Very High: CI equal or below 1 at IC20 and Cl below 0.6 to IC50)
- Potentiating activity DLD-1 (DLD-1 (colon cancer)): (3) (Moderate: 0.5 < CI < 0.8 at IC50)
- Potentiating activity PA-1 (PA-1 (ovary cancer)): (1) (Very High: potentiating or additive activity to IC20 and CI < 0.6 to IC50)
- Potentiating activity MCF-7 (MCF-7 (breast cancer)): (1) (Very High: CI equal or below 1 at IC20 and Cl below 0.6 to IC50)
- Potentiating activity A-549 (A-549 (lung cancer)): (4) (Weak: 0.8 < CI < 1 at IC50)
- Potentiating activity PC-3 (PC-3 (prostate cancer)): (6) (Antagonist effect: CI > 1)

Structure (SMILES): CN(Cc1cnc2nc(N)nc(N)c2n1)c1ccc(C(=O)N[C@@H](CCC(=O)O)C(=O)O)cc1 [Methotrexate]
- Potentiating activity GL-261 [1]: (6) (Antagonist effect: CI > 1)
- Potentiating activity U-251 [2]: (2) (High: CI < 0.5 to IC50)
- Potentiating activity B16 (B16 (murine melanoma)): (6) (Antagonist effect: CI > 1)
- Potentiating activity MEL-2 (MEL-2 (human melanoma)): (1) (Very High: potentiating or additive activity to IC20 and CI < 0.6 to IC50)
- Potentiating activity MDA [3]: (6) (Antagonist effect: CI > 1)
- Potentiating activity DLD-1 (DLD-1 (colon cancer)): (4) (Weak: 0.8 < CI < 1 at IC50)
- Potentiating activity PA-1 (PA-1 (ovary cancer)): (1) (Very High: potentiating or additive activity to IC20 and CI < 0.6 to IC50)
- Potentiating activity MCF-7 (MCF-7 (breast cancer)): (2) (High: CI below 0.5 at IC50)
- Potentiating activity A-549 (A-549 (lung cancer)): (4) (Weak: 0.8 < CI < 1 at IC50)
- Potentiating activity PC-3 (PC-3 (prostate cancer)): (6) (Antagonist effect: CI > 1)

Structure (SMILES): O=C1c2c(O)ccc(O)c2C(=O)c2c(NCCNCCO)ccc(NCCNCCO)c21 [Mitoxantrone]
- Potentiating activity GL-261 [1]: (1) (Very High: potentiating or additive activity to IC20 and CI < 0.6 to IC50)
- Potentiating activity U-251 [2]: (4) (Weak: 0.8 < CI < 1 to IC50)
- Potentiating activity B16 (B16 (murine melanoma)): (3) (Moderate: 0.5 < CI < 0.8 to IC50)
- Potentiating activity MEL-2 (MEL-2 (human melanoma)): (3) (Moderate: 0.5 < CI < 0.8 to IC50)
- Potentiating activity MDA [3]: (3) (Moderate: 0.5 < CI < 0.8 at IC50)
- Potentiating activity DLD-1 (DLD-1 (colon cancer)): (5) (Additive effect: CI = 1)
- Potentiating activity PA-1 (PA-1 (ovary cancer)): (2) (High: CI < 0.5 to IC50)
- Potentiating activity MCF-7 (MCF-7 (breast cancer)): (1) (Very High: CI equal or below 1 at IC20 and Cl below 0.6 to IC50)
- Potentiating activity A-549 (A-549 (lung cancer)): (5) (Additive effect: CI = 1)
- Potentiating activity PC-3 (PC-3 (prostate cancer)): (5) (Additive effect: CI = 1)

Structure (SMILES): CC/C(=C(\c1ccccc1)c1ccc(OCCN(C)C)cc1)c1ccccc1 [Tamoxifen, tamoxifen citrate]
- Potentiating activity GL-261 [1]: (2) (High: CI < 0.5 to IC50)
- Potentiating activity U-251 [2]: (1) (Very High: potentiating or additive activity to IC20 and CI < 0.6 to IC50)
- Potentiating activity B16 (B16 (murine melanoma)): (3) (Moderate: 0.5 < CI < 0.8 to IC50)
- Potentiating activity MEL-2 (MEL-2 (human melanoma)): (1) (Very High: potentiating or additive activity to IC20 and CI < 0.6 to IC50)
- Potentiating activity MDA [3]: (5) (Additive effect: CI = 1)
- Potentiating activity DLD-1 (DLD-1 (colon cancer)): (2) (High: CI below 0.5 at IC50)
- Potentiating activity PA-1 (PA-1 (ovary cancer)): (2) (High: CI < 0.5 to IC50)
- Potentiating activity MCF-7 (MCF-7 (breast cancer)): (6) (Antagonist effect: CI > 1)
- Potentiating activity A-549 (A-549 (lung cancer)): (3) (Moderate: 0.5 < CI < 0.8 at IC50)
- Potentiating activity PC-3 (PC-3 (prostate cancer)): (2) (High: CI < 0.5 to IC50)
